Measurements as given in patent US20110065787A1, “THERAPEUTIC AGENT FOR MALE STERILITY” (SBI ALApromo., Ltd., priority 2008, published 2011).
Entries after “also recorded” stand apart in the source; their conditions may differ.

What was measured:
[1] = system: healthy volunteers, married men; assay: Subjective estimation of erectile effect in healthy volunteers (Example 3); format: in vivo, human
Protocol: 1 g of ALA hydrochloride was dissolved into 50 mL of 5% glucose aqueous solution (test solution), and administered to 7 healthy volunteers, married men from 28 to 44 years old. They ingested orally the test solution (13.9 to 22.2 mg/kg) without taking breakfast.

[2] = system: male rats (Slc:Wistar); assay: Crossing test: conception rate of copulated animals (Example 2); format: in vivo, rat
Protocol: Forty 10 week-old male rats (Slc:Wistar) and forty 9 week-old female rats were obtained, quarantined for 7 days, and were habituated and bred for 13 days. δ-amino levulinic acid (herein after referred to as ALA) phosphate was weighed, dissolved into injection solvent to prepare a 50 mg/mL solution.
After day 15 from administration of Example 1, crossing period was set as 14 days, and 1 female was housed per 1 male in the control group and in the 500 mg/kg-group.

[3] = system: male rats (Slc:Wistar); assay: Organ weights at autopsy of male rats after repeated oral administration (Example 1); settings: 500 mg/kg oral once a day, compared to the control group, FIG. 1
[4] = 1 g oral in 5% glucose solution (13.9 to 22.2 mg/kg), one line per volunteer 1-7, hydrochloride

| SMILES | Note (sexual intercourse, pregnancy) [1, 4] | Result (erectile, individual subjective estimation) [1, 4] | volunteers in whom erectile was observed on that night ([1]; 1 g oral, 7 healthy volunteers) | volunteers who had sexual intercourse, and pregnancy was confirmed ([1]; 1 g oral, among the volunteers with erectile) | conception succeeded (number of rats) ([2]; 500 mg/kg-group, control 16 out of 20) | conception rate of copulated animals ([2]; male rats 500 mg/kg oral once a day, crossing period 14 days after day 15, control group 80.0%) [%] | net weight of seminal vesicle [3] | weight volume ratio to the body weight of seminal vesicle [3] |
| --- | --- | --- | --- | --- | --- | --- | --- | --- |
| Cl.NCC(=O)CCC(=O)O [ALA hydrochloride, δ-amino levulinic acid hydrochloride] | pregnant; also recorded: No sexual intercourse; also recorded: No sexual intercourse, | Δ (when no change is observed by (Δ)) | 5 out of 7 | 2 | – | – | – | – |
| NCC(=O)CCC(=O)O.O=P(O)(O)O [ALA phosphate, δ-amino levulinic acid phosphate] | – | – | – | – | 17 out of 19 | 94.4 | significant high level | significant high level |
